The experiment concerns the target Carboxylic ester hydrolase (Equus caballus, UniProt Q9N1N9). The experiment is described as follows: BChE Inhibition Assay. The note with it: pH 7; 25 °C. How it is done: BChE inhibitions by the carbamate inhibitors were assayed by the Ellman method [Ellman et al., Biochem. Pharm., 7:88-95]. BChE-catalyzed hydrolysis of BTCh in the presence of the carbamate inhibitors and DTNB was followed continuously at 410 nm on a UV-visible spectrometer. The temperature was maintained at 25.0°C by a refrigerated circulating water bath. All inhibition reactions were performed in sodium phosphate buffer (1 mL, 0.1 M, pH 7.0) containing NaCl (0.1 M), acetonitrile (2% by volume), triton X-100 (0.5% by weight), substrate (ATCh for AChE or BTCh for BChE) (50 μM), DTNB, and varying concentrations of inhibitor. Requisite volumes of stock solution of substrateand inhibitors in acetonitrile were injected into the reaction buffer via a pipet. BChE was dissolved in sodium phosphate buffer (0.1 M, pH 7.0).

Chain of Carboxylic ester hydrolase (Q9N1N9 whole entry): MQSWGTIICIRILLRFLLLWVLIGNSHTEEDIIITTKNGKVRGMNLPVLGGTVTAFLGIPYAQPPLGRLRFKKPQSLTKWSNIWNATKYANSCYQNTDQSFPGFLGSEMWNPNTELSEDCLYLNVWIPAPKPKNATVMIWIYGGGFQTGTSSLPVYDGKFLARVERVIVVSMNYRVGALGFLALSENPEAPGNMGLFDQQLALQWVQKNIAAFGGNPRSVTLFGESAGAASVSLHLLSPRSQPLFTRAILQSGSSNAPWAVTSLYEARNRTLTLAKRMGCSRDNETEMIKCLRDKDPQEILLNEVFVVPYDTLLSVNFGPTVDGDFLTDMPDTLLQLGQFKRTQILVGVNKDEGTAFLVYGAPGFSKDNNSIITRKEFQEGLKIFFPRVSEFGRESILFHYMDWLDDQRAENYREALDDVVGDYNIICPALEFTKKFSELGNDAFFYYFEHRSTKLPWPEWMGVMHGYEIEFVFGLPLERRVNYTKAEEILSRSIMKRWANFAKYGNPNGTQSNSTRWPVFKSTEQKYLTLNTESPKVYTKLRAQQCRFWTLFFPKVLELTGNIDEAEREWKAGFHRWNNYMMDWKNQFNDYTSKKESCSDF

As for `CCCCNC(=O)OC1CC2CCC1C2` [(S)-(-)-exo-2-norbonyl-N-n-butylcarbamate], the Ki – broadly, the dissociation constant of the complex between target and ligand, obtained from inhibition or displacement – was determined as 50 nM.

Molecule `CCCCNC(=O)OC1CC2CCC1C2` [(R)-(+)-exo-2-norbonyl-N-n-butylcarbamate] showed an inhibition constant (Ki) of 11 nM.

`CCCCNC(=O)OC1CC2CCC1C2` [(S)-(-)-endo-2-norbornyl-N-n-butylcarbamate]: the inhibition constant (Ki) came to 2 nM.

Values taken from BindingDB's records for doi:10.3109/14756360902888200 (Chung Shan Medical University Hospital, 2010).
